# Test system: MV-4-11 cells
# Assay: Gene expression microarray analysis (Affymetrix PrimeView) and GSEA
# Type: cell-based, human
# Design: RFU PODN (11730768_x_at) / Fold change /veh PODN (11730768_x_at) / RFU LINC00158 (11744669_a_at) / Fold change /veh LINC00158 (11744669_a_at) / RFU DUSP10 (11751237_a_at) / Fold change /veh DUSP10 (11751237_a_at) / RFU ID3 (11757404_x_at) / Fold change /veh ID3 (11757404_x_at) / RFU PLEKHG5 (11737974_s_at) / Fold change /veh PLEKHG5 (11737974_s_at) / RFU LRRC4B (11730491_at) / Fold change /veh LRRC4B (11730491_at) / RFU GIMAP4 (11747438_a_at) / Fold change /veh GIMAP4 (11747438_a_at) / RFU KRT8 (11758183_x_at) / Fold change /veh KRT8 (11758183_x_at) / RFU CNN1 (11734310_a_at) / Fold change /veh CNN1 (11734310_a_at) / RFU VPS37D (11726825_at) / Fold change /veh VPS37D (11726825_at) / RFU C10orf10 (11716522_x_at) / Fold change /veh C10orf10 (11716522_x_at) / RFU KIR2DL2 /// KIR2DL4 /// KIR2DL5A /// KIR2DL5B /// KIR2DS1 /// KIR2DS2 /// KIR2DS3 /// KIR2DS4 /// KIR3DL3 /// KIR3DL3 /// KIR3DS1 (11738374_at) / Fold change /veh KIR2DL2 /// KIR2DL4 /// KIR2DL5A /// KIR2DL5B /// KIR2DS1 /// KIR2DS2 /// KIR2DS3 /// KIR2DS4 /// KIR3DL3 /// KIR3DL3 /// KIR3DS1 (11738374_at) / RFU C1QL1 (11718748_at) / Fold change /veh C1QL1 (11718748_at) / RFU TMPRSS4 (11747572_a_at) / Fold change /veh TMPRSS4 (11747572_a_at) / RFU HAMP (11756126_x_at) / Fold change /veh HAMP (11756126_x_at) / RFU RNFT2 (11725882_a_at) / Fold change /veh RNFT2 (11725882_a_at) / RFU NR4A2 (11747474_a_at) / Fold change /veh NR4A2 (11747474_a_at) / RFU ABCC12 (11746883_a_at) / Fold change /veh ABCC12 (11746883_a_at) / RFU TMEM136 (11760407_x_at) / Fold change /veh TMEM136 (11760407_x_at) / RFU CLDN22 /// WWC2 (11732394_at) / Fold change /veh CLDN22 /// WWC2 (11732394_at) / RFU HLA-DPB1 (11760878_x_at) / Fold change /veh HLA-DPB1 (11760878_x_at) / RFU SPINT1 (11716480_a_at) / Fold change /veh SPINT1 (11716480_a_at) / RFU GAP43 (11754022_s_at) / Fold change /veh GAP43 (11754022_s_at) / RFU A4GNT (11735810_at) / Fold change /veh A4GNT (11735810_at) / RFU PRB3 (11715151_x_at) / Fold change /veh PRB3 (11715151_x_at) / RFU TUBB4B (11761932_at) / Fold change /veh TUBB4B (11761932_at) / RFU CAPN14 (11732068_a_at) / Fold change /veh CAPN14 (11732068_a_at) / RFU TMCC2 (11721928_a_at) / Fold change /veh TMCC2 (11721928_a_at) / RFU IRGQ (11745062_a_at) / Fold change /veh IRGQ (11745062_a_at) / RFU FAM174B (11720279_a_at) / Fold change /veh FAM174B (11720279_a_at) / RFU TMPRSS4 (11748680_a_at) / Fold change /veh TMPRSS4 (11748680_a_at) / RFU FAM212B (11763350_a_at) / Fold change /veh FAM212B (11763350_a_at) / RFU PLEKHG5 (11743358_a_at) / Fold change /veh PLEKHG5 (11743358_a_at) / RFU ZSCAN30 (11745921_a_at) / Fold change /veh ZSCAN30 (11745921_a_at) / RFU CMKLR1 (11741424_a_at) / Fold change /veh CMKLR1 (11741424_a_at) / RFU LOC101060620 /// MAPK8IP1 (11723275_at) / Fold change /veh LOC101060620 /// MAPK8IP1 (11723275_at) / RFU SPTSSB (11747773_x_at) / Fold change /veh SPTSSB (11747773_x_at) / RFU PRSS12 (11739890_at) / Fold change /veh PRSS12 (11739890_at) / RFU BIN1 (11741810_x_at) / Fold change /veh BIN1 (11741810_x_at) / RFU WNT11 (11732464_a_at) / Fold change /veh WNT11 (11732464_a_at) / RFU C10orf10 (11716521_a_at) / Fold change /veh C10orf10 (11716521_a_at) / RFU C5orf56 (11738089_at) / Fold change /veh C5orf56 (11738089_at) / RFU CYB561 (11721691_x_at) / Fold change /veh CYB561 (11721691_x_at) / RFU ANKRD19P (11752326_a_at) / Fold change /veh ANKRD19P (11752326_a_at) / RFU OR2T12 /// OR2T33 /// OR2T8 (11738714_s_at) / Fold change /veh OR2T12 /// OR2T33 /// OR2T8 (11738714_s_at) / RFU VCAN (11748164_a_at) / Fold change /veh VCAN (11748164_a_at) / RFU JSRP1 (11732532_at) / Fold change /veh JSRP1 (11732532_at) / RFU KRTAP10-11 (11738290_x_at) / Fold change /veh KRTAP10-11 (11738290_x_at) / RFU MYO3A (11730013_a_at) / Fold change /veh MYO3A (11730013_a_at) / RFU EBF3 (11725865_a_at) / Fold change /veh EBF3 (11725865_a_at) / RFU CAMK2N1 (11719241_x_at) / Fold change /veh CAMK2N1 (11719241_x_at) / RFU C5orf56 (11738088_a_at) / Fold change /veh C5orf56 (11738088_a_at) / RFU OLFML3 (11715873_a_at) / Fold change /veh OLFML3 (11715873_a_at) / RFU LOC100653217 /// NTM (11731650_a_at) / Fold change /veh LOC100653217 /// NTM (11731650_a_at) / RFU MAPK11 (11762145_a_at) / Fold change /veh MAPK11 (11762145_a_at) / RFU FIZ1 (11724087_x_at) / Fold change /veh FIZ1 (11724087_x_at) / RFU OASL (11726364_x_at) / Fold change /veh OASL (11726364_x_at) / RFU SOX15 (11748057_x_at) / Fold change /veh SOX15 (11748057_x_at) / RFU CD79A (11719716_a_at) / Fold change /veh CD79A (11719716_a_at) / RFU HIST1H1D (11736915_at) / Fold change /veh HIST1H1D (11736915_at) / RFU CASKIN2 (11723855_a_at) / Fold change /veh CASKIN2 (11723855_a_at) / RFU LOC730098 (11760151_x_at) / Fold change /veh LOC730098 (11760151_x_at) / RFU OR4N2 (11742367_at) / Fold change /veh OR4N2 (11742367_at) / RFU PRRT2 (11749266_a_at) / Fold change /veh PRRT2 (11749266_a_at) / RFU SNX32 (11753110_a_at) / Fold change /veh SNX32 (11753110_a_at) / RFU CDHR5 (11726645_a_at) / Fold change /veh CDHR5 (11726645_a_at) / RFU RCAN1 (11760418_a_at) / Fold change /veh RCAN1 (11760418_a_at) / RFU FAM167A (11723789_a_at) / Fold change /veh FAM167A (11723789_a_at) / RFU FAM26E (11764081_at) / Fold change /veh FAM26E (11764081_at) / RFU ISYNA1 (11749810_s_at) / Fold change /veh ISYNA1 (11749810_s_at) / RFU ACY1 (11761880_at) / Fold change /veh ACY1 (11761880_at) / RFU 11764098_at / Fold change /veh 11764098_at / RFU SAMD14 (11745864_x_at) / Fold change /veh SAMD14 (11745864_x_at) / RFU NPB (11741838_a_at) / Fold change /veh NPB (11741838_a_at) / RFU TMPRSS6 (11731388_a_at) / Fold change /veh TMPRSS6 (11731388_a_at) / RFU KRTAP10-2 (11738614_at) / Fold change /veh KRTAP10-2 (11738614_at) / RFU ARHGAP8 /// PRR5-ARHGAP8 (11727945_x_at) / Fold change /veh ARHGAP8 /// PRR5-ARHGAP8 (11727945_x_at) / RFU KRTAP5-7 /// NADSYN1 (11734609_at) / Fold change /veh KRTAP5-7 /// NADSYN1 (11734609_at) / RFU RASL12 (11751679_a_at) / Fold change /veh RASL12 (11751679_a_at) / RFU CDKN2B (11736163_a_at) / Fold change /veh CDKN2B (11736163_a_at) / RFU PRF1 (11729649_at) / Fold change /veh PRF1 (11729649_at) / RFU, ZNF638 /// ZNF638-IT1 / Fold change vs veh, ZNF638 /// ZNF638-IT1 / RFU, PANK3 / Fold change vs veh, PANK3 / RFU, SH3YL1 / Fold change vs veh, SH3YL1 / RFU, ZEB2 / Fold change vs veh, ZEB2 / RFU, NRIP1 / Fold change vs veh, NRIP1 / RFU, PTTG1IP / Fold change vs veh, PTTG1IP / RFU, CAPN2 / Fold change vs veh, CAPN2 / RFU, MED14 / Fold change vs veh, MED14 / RFU, SNORA58 / Fold change vs veh, SNORA58 / RFU, C1orf63 / Fold change vs veh, C1orf63 / RFU, LRRFIP1 / Fold change vs veh, LRRFIP1 / RFU, NDUFAF7 / Fold change vs veh, NDUFAF7 / RFU, SLC12A2 / Fold change vs veh, SLC12A2 / RFU, IBTK / Fold change vs veh, IBTK / RFU, ESF1 / Fold change vs veh, ESF1 / Fold change vs veh, TMEM50B / RFU, TAOK1 / Fold change vs veh, TAOK1 / RFU, ACBD3 / Fold change vs veh, ACBD3 / RFU, TMA16 / Fold change vs veh, TMA16 / RFU, RWDD3 / Fold change vs veh, RWDD3 / RFU, BCAT1 / Fold change vs veh, BCAT1 / RFU, EDEM3 / Fold change vs veh, EDEM3 / RFU, TMEM33 / Fold change vs veh, TMEM33 / RFU, WDR75 / Fold change vs veh, WDR75 / RFU, AHCTF1 / Fold change vs veh, AHCTF1 / RFU, TFRC / Fold change vs veh, TFRC / RFU, ZDHHC17 / Fold change vs veh, ZDHHC17 / RFU, NOM1 / Fold change vs veh, NOM1 / RFU, ARL8B / Fold change vs veh, ARL8B / RFU, ZBTB11 / Fold change vs veh, ZBTB11 / RFU, TAMM41 / Fold change vs veh, TAMM41 / RFU, KIAA1704 /// LOC100996395 / Fold change vs veh, KIAA1704 /// LOC100996395 / RFU, ING1 / Fold change vs veh, ING1 / RFU, TRMT61B / Fold change vs veh, TRMT61B / RFU, FUBP3 / Fold change vs veh, FUBP3 / RFU, TP53 / Fold change vs veh, TP53 / RFU, TNKS2 / Fold change vs veh, TNKS2 / RFU, ZFP14 / Fold change vs veh, ZFP14 / RFU, ACTR2 / Fold change vs veh, ACTR2 / RFU, PPP3R1 / Fold change vs veh, PPP3R1 / RFU, PIK3R1 / Fold change vs veh, PIK3R1 / RFU, HNRNPA1 / Fold change vs veh, HNRNPA1 / RFU, RNF170 / Fold change vs veh, RNF170 / RFU, ZNF28 / Fold change vs veh, ZNF28 / RFU, RNGTT / Fold change vs veh, RNGTT / RFU, OGT / Fold change vs veh, OGT / RFU, BRD1 / Fold change vs veh, BRD1 / RFU, MARS / Fold change vs veh, MARS / RFU, ZNF655 / Fold change vs veh, ZNF655 / RFU, FAHD1 / Fold change vs veh, FAHD1 / RFU, BDP1 / Fold change vs veh, BDP1 / RFU, LRRCC1 / Fold change vs veh, LRRCC1 / RFU, ARID1A / Fold change vs veh, ARID1A / RFU, ZNF146 / Fold change vs veh, ZNF146 / RFU, ZNF330 / Fold change vs veh, ZNF330 / RFU, GPN3 / Fold change vs veh, GPN3 / RFU, C9orf123 / Fold change vs veh, C9orf123 / RFU, N4BP2L2 / Fold change vs veh, N4BP2L2 / RFU, ARFIP1 / Fold change vs veh, ARFIP1 / RFU, FAM179B / Fold change vs veh, FAM179B / RFU, BCL10 / Fold change vs veh, BCL10 / RFU, UHRF1BP1L / Fold change vs veh, UHRF1BP1L / RFU, BET1 / Fold change vs veh, BET1 / RFU, CNOT2 / Fold change vs veh, CNOT2 / RFU, ZNF268 / Fold change vs veh, ZNF268 / Fold change vs veh, ZNF507 / RFU, DGCR2 / Fold change vs veh, DGCR2 / RFU, WDSUB1 / Fold change vs veh, WDSUB1 / Fold change vs veh, HSP90B1 /// MIR3652 / RFU, ADSS / Fold change vs veh, ADSS / RFU, GK / Fold change vs veh, GK / RFU, ZNF148 / Fold change vs veh, ZNF148 / RFU, TAF9 / Fold change vs veh, TAF9 / RFU, SLC1A5 / Fold change vs veh, SLC1A5 / RFU, SLMO2 / Fold change vs veh, SLMO2 / RFU, ABCC4 / Fold change vs veh, ABCC4 / RFU, LOC101060439 /// RAP1B / Fold change vs veh, LOC101060439 /// RAP1B / RFU, RFX7 / Fold change vs veh, RFX7 / RFU, GTPBP10 / Fold change vs veh, GTPBP10 / RFU, CNEP1R1 / Fold change vs veh, CNEP1R1 / RFU, BIVM-ERCC5 /// ERCC5 / Fold change vs veh, BIVM-ERCC5 /// ERCC5 / RFU, ILF3 / Fold change vs veh, ILF3 / RFU 11762660_at / Fold change /veh 11762660_at / RFU VCAN (11757783_s_at) / Fold change /veh VCAN (11757783_s_at) / RFU DDX43 (11728927_at) / Fold change /veh DDX43 (11728927_at) / RFU KRT8 (11758188_x_at) / Fold change /veh KRT8 (11758188_x_at) / RFU NKD1 (11759106_at) / Fold change /veh NKD1 (11759106_at) / RFU SRD5A1 (11742802_a_at) / Fold change /veh SRD5A1 (11742802_a_at) / RFU TPSAB1 /// TPSB2 (11721975_s_at) / Fold change /veh TPSAB1 /// TPSB2 (11721975_s_at) / RFU GSTM3 (11746129_a_at) / Fold change /veh GSTM3 (11746129_a_at) / RFU IL23R (11737362_x_at) / Fold change /veh IL23R (11737362_x_at) / RFU TMEM51 (11727254_a_at) / Fold change /veh TMEM51 (11727254_a_at) / RFU PIWIL2 (11732686_x_at) / Fold change /veh PIWIL2 (11732686_x_at) / RFU ORM1 (11744905_x_at) / Fold change /veh ORM1 (11744905_x_at) / RFU CCDC152 (11743942_at) / Fold change /veh CCDC152 (11743942_at) / RFU ECM1 (11717891_a_at) / Fold change /veh ECM1 (11717891_a_at) / RFU IL23R (11748794_a_at) / Fold change /veh IL23R (11748794_a_at) / RFU TNFAIP8L3 (11732012_x_at) / Fold change /veh TNFAIP8L3 (11732012_x_at) / RFU MBOAT4 (11741988_at) / Fold change /veh MBOAT4 (11741988_at) / RFU 11764193_at / Fold change /veh 11764193_at / RFU TMEM53 (11763286_at) / Fold change /veh TMEM53 (11763286_at) / RFU MAGEB2 (11727129_at) / Fold change /veh MAGEB2 (11727129_at) / RFU TMEM200A (11744735_a_at) / Fold change /veh TMEM200A (11744735_a_at) / RFU CCDC152 (11751479_a_at) / Fold change /veh CCDC152 (11751479_a_at) / RFU FAM211A (11726209_a_at) / Fold change /veh FAM211A (11726209_a_at) / RFU RGS16 (11746705_a_at) / Fold change /veh RGS16 (11746705_a_at) / RFU VCAN (11755009_s_at) / Fold change /veh VCAN (11755009_s_at) / RFU RHOB (11743442_s_at) / Fold change /veh RHOB (11743442_s_at) / RFU RGS16 (11720943_a_at) / Fold change /veh RGS16 (11720943_a_at) / RFU RGS16 (11720944_at) / Fold change /veh RGS16 (11720944_at) / RFU, VPS4B / Fold change vs veh, VPS4B / RFU, CREB1 / Fold change vs veh, CREB1 / RFU, DNAJC13 / Fold change vs veh, DNAJC13 / RFU, GNAQ / Fold change vs veh, GNAQ / RFU, CDK5R1 / Fold change vs veh, CDK5R1 / RFU, ZRANB3 / Fold change vs veh, ZRANB3 / RFU, CUL4A / Fold change vs veh, CUL4A / RFU, CCNY / Fold change vs veh, CCNY / RFU, UFL1 / Fold change vs veh, UFL1 / RFU, COG3 / Fold change vs veh, COG3 / RFU, DIAPH2 / Fold change vs veh, DIAPH2 / RFU, SKA2 / Fold change vs veh, SKA2 / RFU, AFF3 / Fold change vs veh, AFF3 / RFU, LMF1 / Fold change vs veh, LMF1 / RFU, IPO11 / Fold change vs veh, IPO11 / RFU, DFFB / Fold change vs veh, DFFB / RFU, FOXP1 / Fold change vs veh, FOXP1 / RFU, CARD8 / Fold change vs veh, CARD8 / RFU, STRN3 / Fold change vs veh, STRN3 / RFU, ADK / Fold change vs veh, ADK / RFU, RASSF2 / Fold change vs veh, RASSF2 / RFU, WIPF1 / Fold change vs veh, WIPF1 / RFU, LARP1B / Fold change vs veh, LARP1B / RFU, RASA1 / Fold change vs veh, RASA1 / RFU, RB1 / Fold change vs veh, RB1 / RFU, PPFIA1 / Fold change vs veh, PPFIA1 / RFU, MAT2A / Fold change vs veh, MAT2A / RFU, CCT5 / Fold change vs veh, CCT5 / RFU, WDR92 / Fold change vs veh, WDR92 / RFU, CUX1 / Fold change vs veh, CUX1 / RFU, TTC7A / Fold change vs veh, TTC7A / RFU, TMEM135 / Fold change vs veh, TMEM135 / RFU, DEPTOR / Fold change vs veh, DEPTOR / RFU, CPM / Fold change vs veh, CPM / RFU, DNAJB6 / Fold change vs veh, DNAJB6 / RFU, CACNA2D3 / Fold change vs veh, CACNA2D3 / RFU, DTX4 / Fold change vs veh, DTX4 / RFU, TFCP2 / Fold change vs veh, TFCP2 / RFU, GMCL1 /// GMCL1P1 / Fold change vs veh, GMCL1 /// GMCL1P1 / RFU, AEBP2 / Fold change vs veh, AEBP2 / RFU, SNHG1 /// SNORD22 /// SNORD25 /// SNORD26 /// SNORD27 /// SNORD28 /// SNORD29 /// SNORD31 / Fold change vs veh, SNHG1 /// SNORD22 /// SNORD25 /// SNORD26 /// SNORD27 /// SNORD28 /// SNORD29 /// SNORD31 / Fold change (Aza/veh), C12orf56 (ProbeSet 11735607_a_at) / Fold change (ACY-1035/veh), C12orf56 (ProbeSet 11735607_a_at) / Fold change (Aza/veh), FGFR1OP (ProbeSet 11751329_s_at) / Fold change (ACY-1035/veh), FGFR1OP (ProbeSet 11751329_s_at) / Fold change (Aza/veh), VPS36 (ProbeSet 11739960_a_at) / Fold change (ACY-1035/veh), VPS36 (ProbeSet 11739960_a_at) / RFU SYPL1 (11715823_x_at) / Fold change /veh SYPL1 (11715823_x_at) / RFU IGFBP7 (11715501_s_at) / Fold change /veh IGFBP7 (11715501_s_at) / RFU REEP3 (11722064_at) / Fold change /veh REEP3 (11722064_at) / RFU IGLL1 (11728026_x_at) / Fold change /veh IGLL1 (11728026_x_at): dose or concentration left out as unconfirmed
# Conditions: ProbeSet 11764057_s_at; LIST B
structure (smiles),measurement,value
Nc1ncn([C@@H]2O[C@H](CO)[C@@H](O)[C@H]2O)c(=O)n1 [azacitidine],"RFU, C1orf63",124.54 RFU
